Reference: EP4273147A1, “SUBSTITUTED SPIROLACTAMS, SALTS THEREOF AND THEIR USE AS HERBICIDALLY ACTIVE SUBSTANCES” (Bayer Aktiengesellschaft, priority 2022, dated 2023)

Tests used:
[1] = system: ABUTH; assay: Herbicidal pre-emergence action (Table A1); type: in vivo, Abutilon theophrasti; details: application rate 1280 g/ha; visual grading after ca. 3 weeks vs untreated controls (100% = plants have died off, 0% = as control plants)
Summary of the method: (§1)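 Seeds of monocot and dicot weeds were sown in pots of sandy loam and covered with soil. Each pot held a double sowing: one monocotyledonous plus one dicotyledonous species.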

[2] = system: ECHCG; assay: Herbicidal pre-emergence action (Table A2); type: in vivo, Echinochloa crus-galli; details: application rate 320 g/ha; visual grading after ca. 3 weeks
Summary of the method: as §1

[3] = system: LOLRI; assay: Herbicidal pre-emergence action (Table A3); type: in vivo, Lolium rigidum; details: application rate 320 g/ha; visual grading after ca. 3 weeks
Summary of the method: as §1

[4] = system: MATIN; assay: Herbicidal pre-emergence action (Table A4); type: in vivo, Matricaria inodora; details: application rate 320 g/ha; visual grading after ca. 3 weeks
Summary of the method: as §1

[5] = system: SETVI; assay: Herbicidal pre-emergence action (Table A5); type: in vivo, Setaria viridis; details: application rate 1280 g/ha; visual grading after ca. 3 weeks
Summary of the method: as §1

[6] = system: STEME; assay: Herbicidal pre-emergence action (Table A6); type: in vivo, Stellaria media; details: application rate 320 g/ha; visual grading after ca. 3 weeks
Summary of the method: as §1

[7] = system: POAAN; assay: Herbicidal pre-emergence action (Table A7); type: in vivo, Poa annua; details: application rate 320 g/ha; visual grading after ca. 3 weeks
Summary of the method: as §1

[8] = system: AMARE; assay: Herbicidal pre-emergence action (Table A8); type: in vivo, Amaranthus retroflexus; details: application rate 1280 g/ha; visual grading after ca. 3 weeks vs untreated controls (100% = plants have died off, 0% = as control plants)
Summary of the method: as §1

[9] = system: ALOMY; assay: Herbicidal pre-emergence action (Table A9); type: in vivo, Alopecurus myosuroides; details: application rate 1280 g/ha; visual grading after ca. 3 weeks
Summary of the method: as §1

[10] = system: KCHSC; assay: Herbicidal pre-emergence action (Table A10); type: in vivo, Kochia scoparia; details: application rate 320 g/ha; visual grading after ca. 3 weeks
Summary of the method: as §1

[11] = system: VERPE; assay: Herbicidal pre-emergence action (Table A11); type: in vivo, Veronica persica; details: application rate 1280 g/ha; visual grading after ca. 3 weeks
Summary of the method: as §1

[12] = system: DIGSA; assay: Herbicidal pre-emergence action (Table A12); type: in vivo, Digitaria sanguinalis; details: application rate 320 g/ha; visual grading after ca. 3 weeks
Summary of the method: as §1

[13] = system: ABUTH; assay: Herbicidal post-emergence action (Table B1); type: in vivo, Abutilon theophrasti; details: application rate 1280 g/ha; treated at one-leaf stage; rated visually after about 3 weeks vs untreated controls (100% = plants have died, 0% = like control plants)
Summary of the method: (§2)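 Visual rating against untreated plants (0% = as control, 100% = dead) made roughly 3 weeks after application. Weed species were grown in sandy loam pots under greenhouse conditions and sprayed at the one-leaf stage, 2–3 weeks post-sowing.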

[14] = system: ECHCG; assay: Herbicidal post-emergence action (Table B3); type: in vivo, Echinochloa crus-galli; details: application rate 1280 g/ha; rated visually after about 3 weeks
Summary of the method: as §2

[15] = system: KCHSC; assay: Herbicidal post-emergence action (Table B4); type: in vivo, Kochia scoparia; details: application rate 1280 g/ha; rated visually after about 3 weeks
Procedure: (§3) Seeds of mono- and dicotyledonous weed plants were placed in plastic pots in sandy loam soil (doubly sown with in each case one species of mono- or dicotyledonous weed plants per pot), covered with soil and cultivated in a greenhouse under controlled growth conditions. 2 to 3 weeks after sowing, the test plants were treated at the one-leaf stage. […] After the test plants had been kept in the greenhouse under optimum growth conditions for about 3 weeks, the activity of the preparations was rated visually in comparison to untreated controls. For example, 100% activity = the plants have died, 0% activity = like control plants.

[16] = system: LOLRI; assay: Herbicidal post-emergence action (Table B5); type: in vivo, Lolium rigidum; details: application rate 1280 g/ha; rated visually after about 3 weeks
Procedure: as §3

[17] = system: MATIN; assay: Herbicidal post-emergence action (Table B6); type: in vivo, Matricaria inodora; details: application rate 1280 g/ha; rated visually after about 3 weeks
Summary of the method: as §2

[18] = system: SETVI; assay: Herbicidal post-emergence action (Table B8); type: in vivo, Setaria viridis; details: application rate 1280 g/ha
Summary of the method: as §2

[19] = system: VERPE; assay: Herbicidal post-emergence action (Table B10); type: in vivo, Veronica persica; details: application rate 1280 g/ha
Summary of the method: as §2

[20] = system: DIGSA; assay: Herbicidal post-emergence action (Table B12); type: in vivo, Digitaria sanguinalis; details: application rate 1280 g/ha
Procedure: as §3

[21] = system: ABUTH; assay: Herbicidal pre-emergence action, section C (Table C1); type: in vivo, Abutilon theophrasti; details: application rate 320 g/ha; visual grading after ca. 3 weeks
From the text: Seeds of mono- and dicotyledonous weed plants and crop plants were sown, in plastic or organic planting pots, in sandy loam and covered with soil. The compounds according to the invention, formulated in the form of wettable powders (WP) or as emulsifiable concentrates (EC), were applied to the surface of the covering soil as aqueous suspension or emulsion, with the addition of 0.5% of an additive, at an application rate of 600 1 of water/ha (converted). Following treatment, the pots were placed in a greenhouse and kept under optimum growth conditions for the test plants.

[22] = system: ALOMY; assay: Herbicidal pre-emergence action, section C (Table C2); type: in vivo, Alopecurus myosuroides; details: application rate 80 g/ha; visual grading after ca. 3 weeks
[23] = system: DIGSA; assay: Herbicidal pre-emergence action, section C (Table C5); type: in vivo, Digitaria sanguinalis; details: application rate 80 g/ha; visual grading after ca. 3 weeks
[24] = system: ECHCG; assay: Herbicidal pre-emergence action, section C (Table C6); type: in vivo, Echinochloa crus-galli; details: application rate 80 g/ha; visual grading after ca. 3 weeks
[25] = system: LOLRI; assay: Herbicidal pre-emergence action, section C (Table C7); type: in vivo, Lolium rigidum; details: application rate 80 g/ha; visual grading after ca. 3 weeks
[26] = system: MATIN; assay: Herbicidal pre-emergence action, section C (Table C8); type: in vivo, Matricaria inodora; details: application rate 320 g/ha; visual grading after ca. 3 weeks
[27] = system: SETVI; assay: Herbicidal pre-emergence action, section C (Table C10); type: in vivo, Setaria viridis; details: application rate 80 g/ha; visual grading after ca. 3 weeks
[28] = system: VERPE; assay: Herbicidal pre-emergence action, section C (Table C11); type: in vivo, Veronica persica; details: application rate 80 g/ha; visual grading after ca. 3 weeks
[29] = system: VIOTR; assay: Herbicidal pre-emergence action, section C (Table C12); type: in vivo, Viola tricolor; details: application rate 80 g/ha; visual grading after ca. 3 weeks
[30] = system: ZEAMX; assay: Pre-emergence effects on crop plants (Table D1); type: in vivo, Zea mays; details: crop plant; application rate 80 g/ha; visual grading after ca. 3 weeks
[31] = system: ALOMY; assay: Herbicidal post-emergence action, section E (Table E2); type: in vivo, Alopecurus myosuroides; details: application rate 320 g/ha; assessed visually after ca. 3 weeks
From the text: (§4) 2 to 3 weeks after sowing, the test plants were sprayed in the single-leaf stage.

[32] = system: ECHCG; assay: Herbicidal post-emergence action, section E (Table E5); type: in vivo, Echinochloa crus-galli; details: application rate 320 g/ha; assessed visually after ca. 3 weeks
From the text: as §4

[33] = system: VERPE; assay: Herbicidal post-emergence action, section E (Table E9); type: in vivo, Veronica persica; details: application rate 320 g/ha; assessed visually after ca. 3 weeks
From the text: as §4

[34] = system: ZEAMX; assay: Post-emergence effects on crop plants (Table F1); type: in vivo, Zea mays; details: application rate 80 g/ha, crop plant ZEAMX
From the text: as §4

[35] = system: TRZAS; assay: Post-emergence effects on crop plants (Table F2); type: in vivo, Triticum aestivum; details: application rate 320 g/ha, crop plant TRZAS
From the text: as §4

[36] = system: ORYZA; assay: Post-emergence effects on crop plants (Table F3); type: in vivo, Oryza sativa; details: application rate 320 g/ha, crop plant ORYZA
From the text: as §4

[37] = system: GLXMA; assay: Post-emergence effects on crop plants (Table F4); type: in vivo, Glycine max; details: application rate 80 g/ha, crop plant GLXMA
From the text: as §4

[38] = system: BRSNW; assay: Post-emergence effects on crop plants (Table F5); type: in vivo, Brassica napus; details: application rate 320 g/ha, crop plant BRSNW
From the text: as §4

[39] = system: ORYZA; assay: Pre-emergence effects on crop plants (Table D3); details: crop plant; application rate 80 g/ha; visual grading after ca. 3 weeks

## O=C1N(Cc2cccc(F)c2F)CCC12CCCN(Cc1c(F)cccc1F)C2=O (racemic) [I-015]
[1]
  pre-emergence activity against ABUTH: 90%
[2]
  pre-emergence activity against ECHCG: 100%
[3]
  pre-emergence activity against LOLRI: 100%
[4]
  pre-emergence activity against MATIN: 90%
[5]
  pre-emergence activity against SETVI: 100%
[6]
  pre-emergence activity against STEME: 90%
[7]
  pre-emergence activity against POAAN: 100%
[8]
  pre-emergence activity against AMARE: 90%
[9]
  pre-emergence activity against ALOMY: 90%
[10]
  pre-emergence activity against KCHSC: 90%
[11]
  pre-emergence activity against VERPE: 90%
[12]
  pre-emergence activity against DIGSA: 100%
[13]
  post-emergence activity against ABUTH: 90%
[14]
  post-emergence activity against ECHCG: 90%
[15]
  post-emergence activity against KCHSC: 90%
[16]
  post-emergence activity against LOLRI: 90%
[17]
  post-emergence activity against MATIN: 90%
[18]
  post-emergence activity against SETVI: 90%
[19]
  post-emergence activity against VERPE: 90%
[20]
  post-emergence activity against DIGSA: 90%
[21]
  pre-emergence activity against ABUTH: 90%
[22]
  pre-emergence activity against ALOMY: 90%
[23]
  pre-emergence activity against DIGSA: 90%
[24]
  pre-emergence activity against ECHCG: 100%
[25]
  pre-emergence activity against LOLRI: 100%
[26]
  pre-emergence activity against MATIN: 90%
[27]
  pre-emergence activity against SETVI: 90%
[28]
  pre-emergence activity against VERPE: 90%
[29]
  pre-emergence activity against VIOTR: 90%
[30]
  pre-emergence activity against ZEAMX: 0%
[31]
  post-emergence activity against ALOMY: 80%
[32]
  post-emergence activity against ECHCG: 90%
[33]
  post-emergence activity against VERPE: 80%
[34]
  post-emergence activity against ZEAMX: 0%
[35]
  post-emergence activity against TRZAS: 0%
[36]
  post-emergence activity against ORYZA: 0%
[37]
  post-emergence activity against GLXMA: 20%
[38]
  post-emergence activity against BRSNW: 0%
[39]
  pre-emergence activity against ORYZA: 0%
